In publication PMC7011955, “Synthesis and biological evaluation of certain hydrazonoindolin-2-one derivatives as new potent anti-proliferative agents” (Journal of Enzyme Inhibition and Medicinal Chemistry, 2018):
Like-named read-outs stand apart in the source and are kept apart here.

Legend:
[1] = system: lung cancer A-549 cell line; experiment: CellTiter-Glo Luminescent cell viability assay, anti-proliferative activity, A-549; assay type: cell-based, human; conditions: for inhibition at 30 µM: A549, 30 µM single concentration, quadruplicate, read-out: Growth inhibition % A-549; for IC50: read-out: IC50 A-549
Procedure: (§1) The anti-proliferative activity of the title compounds 3a-e, 5a-e, 7a-c, and 10a-l towards cancer cell lines, normal cell lines, and multidrug-resistant lung cancer NCI-H69AR cell line was determined using CellTiter-Glo™ Luminescent cell viability assay according to the previously published procedures[14]^,[15].
(§2) The cancer cell growth inhibitory activity of the synthesised 25 compounds 3a-e, 5a-e, 7a-c, and 10a-l was evaluated in vitro towards three human cancer cell lines, namely lung cancer A-549, human colon cancer HT-29, and breast cancer ZR-75 cell lines using CellTiter-Glo™ Luminescent cell viability assay. Sunitinib was included in this assay as a reference drug.
(§3) The prepared hydrazonoindolin-2-ones were first evaluated at preliminary anti-proliferative assay against the three cancer cell lines in quadruplicate at a single concentration of 30 µM. The data presented as percentage growth inhibition (GI%) caused by the test compounds (Table 1).

[2] = system: colon cancer HT-29 cell line; experiment: CellTiter-Glo Luminescent cell viability assay, anti-proliferative activity, HT-29; assay type: cell-based, human; conditions: 30 µM single concentration, quadruplicate; for inhibition at 30 µM: Homo sapiens, HT-29, read-out: Growth inhibition % HT-29
Procedure: as §1, §2, §3

[3] = system: A-549, ZR-75 and HT-29 cell lines; experiment: Average anti-proliferative activity over the three cancer cell lines; assay type: cell-based, human; conditions: average over A-549, ZR-75, HT-29; for Average growth inhibition % / inhibition at 30 µM: 30 µM; for inhibition at 30 µM / IC50: Homo sapiens; for inhibition at 30 µM: read-out: Average growth inhibition %
Procedure: as §1, §2, §3

[4] = system: breast cancer ZR-75 cell line; experiment: CellTiter-Glo Luminescent cell viability assay, anti-proliferative activity, ZR-75; assay type: cell-based; conditions: Homo sapiens, ZR75; 30 µM single concentration, quadruplicate; read-out: Growth inhibition % ZR-75
Procedure: as §1, §2, §3

[5] = system: breast cancer ZR-75 cell line; experiment: as above; assay type: cell-based, human
[6] = system: colon cancer HT-29 cell line; experiment: CellTiter-Glo Luminescent cell viability assay, anti-proliferative activity, HT-29; assay type: cell-based; conditions: Homo sapiens, mean ± SD of four separate experiments
[7] = Homo sapiens, A549, mean ± SD of four separate experiments
[8] = Homo sapiens, ZR75, mean ± SD of four separate experiments
[9] = mean ± SD of four separate experiments

Row | SMILES | melting point [°C] | IC50 [3] [µM] | IC50 [1, 7] [µM] | IC50 [5, 8] [µM] | IC50 [6] [µM] | IC50 ([5]; mean ± SD of four separate experiments, listed as 4d) [µM] | IC50 [1, 9] [µM] | IC50 [5, 9] [µM] | inhibition at 30 µM ([1]; Homo sapiens) [%] | inhibition at 30 µM [2] [%] | Average growth inhibition % [3] [%] | inhibition at 30 µM [3] [%] | inhibition at 30 µM [4] [%] | Growth inhibition % HT-29 [2]
1 | CC(=O)c1ccc(C=NN=C2C(=O)Nc3ccccc32)cc1 [Compound 3a, 3-((4-Acetylbenzylidene)hydrazono)indolin-2-one] | 228 to 230 | > 30 |  |  |  |  |  |  | 12.7 ± 7.1 | 53.6 ± 12.2 | 32.0 | < 35 | 29.6 ± 24.4 | 
2 | COC(=O)c1ccc(C=NN=C2C(=O)Nc3ccccc32)cc1 [Compound 3b, Methyl 4-(((2-oxoindolin-3-ylidene)hydrazono)methyl)benzoate] | 225 to 227 | 14 | 11.2 ± 1.45 | 9.72 ± 2.52 | 21.1 ± 1.86 |  |  |  | 68.1 ± 2.8 | 92.3 ± 3.7 | 80.3 | > 80 | 80.6 ± 7 | 
3 | COC(=O)c1ccc(C=NN=C2C(=O)Nc3ccc(Cl)cc32)cc1 [Compound 3c, Methyl 4-(((5-chloro-2-oxoindolin-3-ylidene)hydrazono)methyl)benzoate] | 266 to 268 | 6.25 | 6.07 ± 0.9 | 4.2 ± 0.57 | 8.49 ± 1.01 |  |  |  | 93.5 ± 2.8 | 95.9 ± 4.7 | 96.1 | > 80 | 98.9 ± 2.1 | 
4 | CC(=O)c1ccc(C=NN=C2C(=O)Nc3ccc(Br)cc32)cc1 [Compound 3d, 3-((4-Acetylbenzylidene)hydrazono)-5-bromoindolin-2-one] | 270 to 272 | > 28.7 | 26.1 ± 4.47 | > 30 | > 30 | > 30 |  |  | 17.3 ± 10.2 | 56.8 ± 15.1 |  | 42.7 | 53.9 ± 14.4 | 
5 | COC(=O)c1ccc(C=NN=C2C(=O)Nc3ccc(Br)cc32)cc1 [Compound 3e, Methyl 4-(((5-bromo-2-oxoindolin-3-ylidene)hydrazono)methyl)benzoate] | 283 to 285 | > 27.8 | > 30 | 23.3 | > 30 |  | > 30 |  | -4.2 ± 9.3 | 26.3 ± 24.4 |  | 41.1 | 55.9 ± 18.2 | 
6 | Cc1csc(C=NN=C2C(=O)Nc3ccccc32)n1 [Compound 5a, 3-(((4-Methylthiazol-2-yl)methylene)hydrazono)indolin-2-one] | 238 to 240 |  |  |  |  |  |  |  | 2.4 ± 5 | 37.9 ± 26.3 | 27.0 | < 35 | 40.8 ± 25.7 | 
7 | O=C1Nc2ccc(Cl)cc2C1=NN=Cc1nccs1 [Compound 5b, 5-Chloro-3-((thiazol-2-ylmethylene)hydrazono)indolin-2-one] | 293 to 295 | 4.37 | 4.87 ± 0.49 | 2.09 ± 0.12 | 6.15 ± 0.51 |  |  |  | 93.6 ± 5.4 | 96.2 ± 4.5 |  | 94.9 | 95 ± 8.2 | 
8 | Cc1csc(C=NN=C2C(=O)Nc3ccc(Cl)cc32)n1 [Compound 5c, 5-Chloro-3-(((4-methylthiazol-2-yl)methylene)hydrazono)indolin-2-one] | 290 to 292 | 2.53 | 2.15 ± 0.23 | 1.16 ± 0.39 | 4.29 ± 0.25 |  |  |  | 98.8 ± 1.5 | 96.4 ± 4.8 |  | 97.7 | 98 ± 2.6 | 
9 | O=C1Nc2ccc(Br)cc2C1=NN=Cc1nccs1 [Compound 5d, 5-Bromo-3-((thiazol-2-ylmethylene)hydrazono)indolin-2-one] | 260 to 262 | 13.5 | 12.5 ± 1.73 | 12.7 ± 2.4 | 15.3 ± 1.93 |  |  |  | 94.8 ± 2.5 | 98.5 ± 3.1 |  | 96.6 | 96.4 ± 1.5 | 
10 | Cc1csc(C=NN=C2C(=O)Nc3ccc(Br)cc32)n1 [Compound 5e, 5-Bromo-3-(((4-methylthiazol-2-yl)methylene)hydrazono)indolin-2-one] | 248 to 250 | 7.49 | 3.54 ± 0.42 | 2.93 ± 0.46 | 8.51 |  |  |  | 95.3 ± 3.1 | 99 ± 1.1 |  | 97.1 | 96.9 ± 2.4 | 
11 | O=C1Nc2ccccc2C1=NNc1nc(-c2ccc(Br)cc2)cs1 [Compound 10d, 3–(2-(4–(4-Bromophenyl)thiazol-2-yl)hydrazono)indolin-2-one] |  |  |  |  |  |  |  |  | 12.3 ± 11.3 | 20.6 ± 26.9 | 28.9 | < 35 | 53.8 ± 19.2 | 

Second part, led by results:

Row | melting point [°C] | IC50 [3] [µM] | IC50 [1, 7] [µM] | IC50 [5, 8] [µM] | IC50 [6] [µM] | IC50 ([5]; mean ± SD of four separate experiments, listed as 4d) [µM] | IC50 [1, 9] [µM] | IC50 [5, 9] [µM] | SMILES | inhibition at 30 µM ([1]; Homo sapiens) [%] | inhibition at 30 µM [2] [%] | Average growth inhibition % [3] [%] | inhibition at 30 µM [3] [%] | inhibition at 30 µM [4] [%] | Growth inhibition % HT-29 [2]
12 | 283 to 285 | > 27.7 | 22.9 ± 3.51 | > 30 | > 30 |  |  | > 30 | O=C1Nc2ccccc2C1=NN=Cc1ccn[nH]1 [Compound 7a, 3-(((1H-pyrazol-5-yl)methylene)hydrazono)indolin-2-one] | 8.2 ± 15.1 | 60.8 ± 13.1 |  | 43 | 60.1 ± 5.8 | 
13 | 264 to 266 |  |  |  |  |  |  |  | O=C1Nc2ccc(Br)cc2C1=NN=Cc1ccn[nH]1 [Compound 7c, 3-(((1H-pyrazol-5-yl)methylene)hydrazono)-5-bromoindolin-2-one] | 32.8 ± 8.9 | 28.8 ± 17.3 | 26.9 | < 35 | 19.2 ± 22.8 | 
14 |  | 11.1 | 9.41 ± 1.29 | 4.35 | 19.4 ± 1.03 |  |  |  | O=C1Nc2ccccc2C1=NNc1nc(-c2ccccc2)cs1 [Compound 10a, 3–(2-(4-Phenylthiazol-2-yl)hydrazono)indolin-2-one] | 70.7 ± 5.7 | 91.2 ± 8.3 |  | 79.6 | 76.9 ± 7.1 | 
15 | 284 to 286 | > 28.2 | > 30 | 24.6 | > 30 |  | > 30 |  | Cc1ccc(-c2csc(NN=C3C(=O)Nc4ccccc43)n2)cc1 [Compound 10b, 3–(2-(4–(4-Tolyl)thiazol-2-yl)hydrazono)indolin-2-one] | 24.4 ± 14.1 | 33.9 ± 21.2 |  | 40.1 | 62.1 ± 10.7 | 
16 | 295 to 297 | > 17.4 | 17.2 ± 2.56 | 4.89 | > 30 |  |  |  | O=C1Nc2ccccc2C1=NNc1nc(-c2ccc(Cl)cc2)cs1 [Compound 10c, 3–(2-(4–(4-Chlorophenyl)thiazol-2-yl)hydrazono)indolin-2-one] | 31.4 ± 9.1 | 85.4 ± 7 |  | 64.6 | 77.1 ± 10.9 | 
17 | > 300 | > 25.4 | 22.7 ± 3.71 | 23.4 | > 30 |  |  |  | Cc1ccc(-c2csc(NN=C3C(=O)Nc4ccc(Cl)cc43)n2)cc1 [Compound 10f, 5-Chloro-3–(2-(4-(p-tolyl)thiazol-2-yl)hydrazono)indolin-2-one] | 27.4 ± 5.8 | 54.4 ± 19.5 |  | 44 | 50.3 ± 33.6 | 
18 | > 300 | > 12.7 | 6.07 ± 7.41 | 1.87 ± 0.26 | > 30 |  |  |  | O=C1Nc2ccc(Cl)cc2C1=NNc1nc(-c2ccc(Cl)cc2)cs1 [Compound 10g, 5-Chloro-3–(2-(4–(4-chlorophenyl)thiazol-2-yl)hydrazono)indolin-2-one] | 18.9 ± 3.2 | 34.4 ± 23.6 |  | 35.4 | 52.8 ± 9.4 | 
19 | > 300 |  |  |  |  |  |  |  | O=C1Nc2ccc(Cl)cc2C1=NNc1nc(-c2ccc(Br)cc2)cs1 [Compound 10h, 3–(2-(4–(4-Bromophenyl)thiazol-2-yl)hydrazono)-5-chloroindolin-2-one] | -2.6 ± 7.5 | -8.3 ± 43.8 |  |  | 9 ± 19.2 | stimulated the growth
20 | > 300 |  |  |  |  |  |  |  | O=C1Nc2ccc(Br)cc2C1=NNc1nc(-c2ccc(Br)cc2)cs1 [Compound 10l, 5-Bromo-3–(2-(4–(4-bromophenyl)thiazol-2-yl)hydrazono)indolin-2-one] | -20.1 ± 5.9 | 27.8 ± 4.3 | 34.4 | < 35 | 40.9 ± 16.7 | 
